Measurements taken from patent publication US9266892B2, “Fused pyrazoles as FGFR inhibitors” (Incyte Corporation, priority 2012, dated 2016).

Legend:
Assay type in all cases: biochemical
FGFR3 = molecular target: T1, FGFR3 (Homo sapiens, UniProt P22607); assay: FGFR Enzymatic Assay (FRET peptide phosphorylation), FGFR3; settings: ATP 140 μM, 25° C. for 1 hr
T1 construct: purchased Millipore
Procedure: (§1) The inhibitor potency of the Example compounds was measured in an enzyme assay that measures peptide phosphorylation using FRET measurements to detect product formation. Inhibitors were serially diluted in DMSO and a volume of 0.5 μL was transferred to the wells of a 384-well plate. For FGFR3, a 10 μL volume of FGFR3 enzyme (Millipore) diluted in assay buffer (50 mM HEPES, 10 mM MgCl2, 1 mM EGTA, 0.01% Tween-20, 5 mM DTT, pH 7.5) was added to the plate and pre-incubated for 5-10 minutes. Appropriate controls (enzyme blank and enzyme with no inhibitor) were included on the plate. The assay was initiated by the addition of a 10 μL solution containing biotinylated EQEDEPEGDYFEWLE peptide substrate (SEQ ID NO: 1) and ATP (final concentrations of 500 nM and 140 μM respectively) in assay buffer to the wells. The plate was incubated at 25° C. for 1 hr. The reactions were ended with the addition of 10 μL/well of quench solution (50 mM Tris, 150 mM NaCl, 0.5 mg/mL BSA, pH˜7.8, 30 mM EDTA with Perkin Elmer Lance Detection Reagents at 3.75 nM Eu-antibody PY20 and 180 nM APC-Streptavidin). The plate was allowed to equilibrate for 1 hour before scanning the wells on a PheraStar plate reader (BMG Labtech). The enzymes were purchased from Millipore or Invitrogen.
(§2) GraphPad prism3 was used to analyze the data. The IC50 values were derived by fitting the data to the equation for a sigmoidal dose-response with a variable slope. Y=Bottom+(Top−Bottom)/(1+10^((Log IC50−X)*HillSlope)) where X is the logarithm of concentration and Y is the response.

FGFR1 = molecular target: T2, FGFR1 (Homo sapiens, UniProt P11362); assay: FGFR Enzymatic Assay (FRET peptide phosphorylation), FGFR1; settings: FGFR1 0.02 nM, ATP 210 μM
T2 construct: purchased Millipore or Invitrogen
Procedure: as §1
(§3) FGFR1 and FGFR2 were measured under equivalent conditions with the following changes in enzyme and ATP concentrations: FGFR1, 0.02 nM and 210 μM, respectively and FGFR2, 0.01 nM and 100 μM, respectively.
as §2

FGFR2 = molecular target: T3, FGFR2 (Homo sapiens, UniProt P21802); assay: FGFR Enzymatic Assay (FRET peptide phosphorylation), FGFR2; settings: FGFR2 0.01 nM, ATP 100 μM
T3 construct: purchased Millipore or Invitrogen
Procedure: as §1, §3, §2

Measured: IC50

T2 sequence (P11362 22-822): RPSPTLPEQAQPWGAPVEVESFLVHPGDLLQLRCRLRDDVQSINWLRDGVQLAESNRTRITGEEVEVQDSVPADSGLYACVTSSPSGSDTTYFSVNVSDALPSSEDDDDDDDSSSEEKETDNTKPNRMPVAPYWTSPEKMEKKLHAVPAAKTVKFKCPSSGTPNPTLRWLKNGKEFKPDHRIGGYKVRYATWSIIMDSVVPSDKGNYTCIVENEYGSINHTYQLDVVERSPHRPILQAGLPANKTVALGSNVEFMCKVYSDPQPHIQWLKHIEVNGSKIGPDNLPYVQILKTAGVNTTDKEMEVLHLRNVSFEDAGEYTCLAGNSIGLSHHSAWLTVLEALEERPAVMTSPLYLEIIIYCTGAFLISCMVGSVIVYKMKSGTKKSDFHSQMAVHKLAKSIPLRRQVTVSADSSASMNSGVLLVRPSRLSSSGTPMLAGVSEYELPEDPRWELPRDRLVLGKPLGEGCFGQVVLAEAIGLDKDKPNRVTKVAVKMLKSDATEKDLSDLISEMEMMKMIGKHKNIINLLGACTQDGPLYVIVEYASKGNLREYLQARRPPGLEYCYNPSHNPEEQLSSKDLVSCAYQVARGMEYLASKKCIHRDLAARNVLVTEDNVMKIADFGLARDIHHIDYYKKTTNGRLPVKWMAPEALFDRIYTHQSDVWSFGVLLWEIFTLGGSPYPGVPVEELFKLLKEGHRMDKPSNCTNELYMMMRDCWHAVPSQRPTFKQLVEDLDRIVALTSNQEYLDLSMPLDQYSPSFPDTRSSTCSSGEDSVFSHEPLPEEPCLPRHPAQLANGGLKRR
T3 sequence (P21802 22-821): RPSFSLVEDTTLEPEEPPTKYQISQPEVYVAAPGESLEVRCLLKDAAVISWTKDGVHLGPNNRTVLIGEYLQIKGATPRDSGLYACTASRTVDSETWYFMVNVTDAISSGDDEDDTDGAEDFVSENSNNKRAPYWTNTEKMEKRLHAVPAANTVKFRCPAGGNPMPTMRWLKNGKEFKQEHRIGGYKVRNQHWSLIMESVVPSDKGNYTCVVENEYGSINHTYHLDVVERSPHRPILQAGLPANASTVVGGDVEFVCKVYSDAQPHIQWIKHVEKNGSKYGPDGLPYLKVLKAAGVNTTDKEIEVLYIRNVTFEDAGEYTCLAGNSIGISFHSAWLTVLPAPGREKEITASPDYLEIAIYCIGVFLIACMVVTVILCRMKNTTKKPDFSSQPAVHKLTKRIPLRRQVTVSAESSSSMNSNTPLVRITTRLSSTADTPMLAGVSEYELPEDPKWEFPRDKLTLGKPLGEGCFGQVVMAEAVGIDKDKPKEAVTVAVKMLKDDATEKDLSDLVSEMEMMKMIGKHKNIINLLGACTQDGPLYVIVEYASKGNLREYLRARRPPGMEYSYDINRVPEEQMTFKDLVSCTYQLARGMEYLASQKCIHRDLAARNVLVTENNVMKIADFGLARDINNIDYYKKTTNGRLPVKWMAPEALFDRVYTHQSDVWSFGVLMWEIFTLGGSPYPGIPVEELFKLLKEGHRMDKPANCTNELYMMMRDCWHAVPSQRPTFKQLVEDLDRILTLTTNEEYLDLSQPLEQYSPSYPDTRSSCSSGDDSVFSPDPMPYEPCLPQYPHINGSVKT
T1 sequence (P22607 23-806): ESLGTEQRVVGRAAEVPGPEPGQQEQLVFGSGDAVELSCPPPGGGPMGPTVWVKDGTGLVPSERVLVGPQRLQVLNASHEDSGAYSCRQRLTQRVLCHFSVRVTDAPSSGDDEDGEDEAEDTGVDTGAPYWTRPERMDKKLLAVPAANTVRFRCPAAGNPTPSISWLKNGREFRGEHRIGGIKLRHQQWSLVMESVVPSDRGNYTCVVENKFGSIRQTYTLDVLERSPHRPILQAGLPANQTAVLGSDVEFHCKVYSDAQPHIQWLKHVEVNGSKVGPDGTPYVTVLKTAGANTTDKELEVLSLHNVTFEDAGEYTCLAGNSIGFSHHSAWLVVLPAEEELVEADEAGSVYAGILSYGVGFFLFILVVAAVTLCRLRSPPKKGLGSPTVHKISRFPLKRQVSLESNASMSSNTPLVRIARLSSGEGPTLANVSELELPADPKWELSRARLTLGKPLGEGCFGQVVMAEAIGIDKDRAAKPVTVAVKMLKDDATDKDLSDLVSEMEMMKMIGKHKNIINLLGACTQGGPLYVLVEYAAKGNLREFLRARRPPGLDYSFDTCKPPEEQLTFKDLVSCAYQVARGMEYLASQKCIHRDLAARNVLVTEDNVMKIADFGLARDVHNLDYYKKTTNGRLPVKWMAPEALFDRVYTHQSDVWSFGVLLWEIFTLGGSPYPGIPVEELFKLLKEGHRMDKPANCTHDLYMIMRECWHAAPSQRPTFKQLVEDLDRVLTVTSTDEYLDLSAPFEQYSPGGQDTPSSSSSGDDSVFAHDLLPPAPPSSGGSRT

COc1cc(OC)c(Cl)c(-c2cnc3c(-c4cnn(C)c4)n[nH]c3c2)c1Cl [Example 70, 6-(2,6-dichloro-3,5-dimethoxyphenyl)-3-(1-methyl-1H-pyrazol-4-yl)-1H-pyrazolo[4,3-b]pyridine]
< 100 nM: all assays above

COc1cc(OC)c(F)c(-c2cc3[nH]nc(-c4ccc5c(c4)CN(C4CC4)C5=O)c3cn2)c1F [Example 54, 2-Cyclopropyl-5-[6-(2,6-difluoro-3,5-dimethoxyphenyl)-1H-pyrazolo[4,3-c]pyridin-3-yl]isoindolin-1-one]
< 100 nM: all assays above

COc1cc(OC)c(Cl)c(-c2cc3[nH]nc(-c4cnn(CC(=O)N5CCOCC5)c4)c3cn2)c1Cl [Example 40, 6-(2,6-Dichloro-3,5-dimethoxyphenyl)-3-[1-(2-morpholin-4-yl-2-oxoethyl)-1H-pyrazol-4-yl]-1H-pyrazolo[4,3-c]pyridine]
< 100 nM: all assays above

COc1cc(OC)c(F)c(-c2ncc3c(-c4cnn(C(C)C#N)c4)n[nH]c3n2)c1F (stereo not drawn) [Example 76, 2-{4-[6-(2,6-Difluoro-3,5-dimethoxyphenyl)-1H-pyrazolo[3,4-d]pyrimidin-3-yl]-1H-pyrazol-1-yl}propanenitrile]
< 100 nM: all assays above

COc1cc(OC)c(F)c(-c2cc3[nH]nc(-c4cnn(CCO)c4)c3cn2)c1F [Example 88, 2-{4-[6-(2,6-Difluoro-3,5-dimethoxyphenyl)-1H-pyrazolo[4,3-c]pyridin-3-yl]-1H-pyrazol-1-yl}ethanol]
< 100 nM: all assays above

COc1cc(OC)c(F)c(-c2ncc3c(-c4ccc5c(c4)CN(C(C)CO)C5=O)n[nH]c3n2)c1F (stereo not drawn) [Example 81, 5-[6-(2,6-Difluoro-3,5-dimethoxyphenyl)-1H-pyrazolo[3,4-d]pyrimidin-3-yl]-2-(2-hydroxy-1-methylethyl)isoindolin-1-one]
< 100 nM: all assays above

COc1cc(OC)c(F)c(-c2ncc3c(-c4ccc5c(c4)CN(CC(C)O)C5=O)n[nH]c3n2)c1F (stereo not drawn) [Example 82, 5-[6-(2,6-Difluoro-3,5-dimethoxyphenyl)-1H-pyrazolo[3,4-d]pyrimidin-3-yl]-2-(2-hydroxypropyl)isoindolin-1-one]
< 100 nM: all assays above

COc1cc(OC)c(Cl)c(-c2cc3[nH]nc(-c4cnn(CC(=O)N(C)C)c4)c3cn2)c1Cl [Example 37, 2-{4-[6-(2,6-Dichloro-3,5-dimethoxyphenyl)-1H-pyrazolo[4,3-c]pyridin-3-yl]-1H-pyrazol-1-yl}-N,N-dimethylacetamide]
< 100 nM: all assays above

COc1cc(OC)c(F)c(-c2cc3[nH]nc(-c4ccc5c(c4)CN([C@H]4CC[C@@H](O)CC4)C5=O)c3cn2)c1F [Example 61, 5-[6-(2,6-Difluoro-3,5-dimethoxyphenyl)-1H-pyrazolo[4,3-c]pyridin-3-yl]-2-(cis-4-hydroxycyclohexyl)isoindolin-1-one]
< 100 nM: all assays above

COc1cc(OC)c(Cl)c(-c2cc3[nH]nc(-c4ccc(OCCN(C)C)cc4)c3cn2)c1Cl [Example 35, 2-{4-[6-(2,6-Dichloro-3,5-dimethoxyphenyl)-1H-pyrazolo[4,3-c]pyridin-3-yl]phenoxy}-N,N-dimethylethanamine]
< 100 nM: all assays above

COc1cc(OC)c(Cl)c(-c2cc3[nH]nc(-c4ccc(OCC(=O)N(C)C)c(C)c4)c3cn2)c1Cl [Example 29, 2-{4-[6-(2,6-Dichloro-3,5-dimethoxyphenyl)-1H-pyrazolo[4,3-c]pyridin-3-yl]-2-methylphenoxy}-N,N-dimethylacetamide]
< 100 nM: all assays above

COc1cc(OC)c(Cl)c(-c2ncc3c(-c4ccc5c(c4)CCNC5=O)n[nH]c3n2)c1Cl [Example 8, 6-[6-(2,6-Dichloro-3,5-dimethoxyphenyl)-1H-pyrazolo[3,4-d]pyrimidin-3-yl]-3,4-dihydroisoquinolin-1(2H)-one]
< 100 nM: all assays above

COc1cc(OC)c(Cl)c(-c2ncc3c(-c4ccc5c(c4)CCN(C(C)C)C5=O)n[nH]c3n2)c1Cl [Example 11, 6-[6-(2,6-Dichloro-3,5-dimethoxyphenyl)-1H-pyrazolo[3,4-d]pyrimidin-3-yl]-2-isopropyl-3,4-dihydroisoquinolin-1(2H)-one]
< 100 nM: all assays above

COc1cc(OC)c(F)c(-c2cc3[nH]nc(-c4ccc5c(c4)CN(C(C)CO)C5=O)c3cn2)c1F (stereo not drawn) [Example 63, 5-[6-(2,6-Difluoro-3,5-dimethoxyphenyl)-1H-pyrazolo[4,3-c]pyridin-3-yl]-2-(2-hydroxy-1-methylethyl)isoindolin-1-one]
< 100 nM: all assays above

COc1cc(OC)c(F)c(-c2cc3[nH]nc(-c4ccc5c(c4)CN([C@H]4CC[C@H](O)CC4)C5=O)c3cn2)c1F [Example 62, 5-[6-(2,6-Difluoro-3,5-dimethoxyphenyl)-1H-pyrazolo[4,3-c]pyridin-3-yl]-2-(trans-4-hydroxycyclohexyl)isoindolin-1-one]
< 100 nM: all assays above

COc1cc(OC)c(F)c(-c2cc3[nH]nc(-c4ccc5c(c4)CN(C(C)C)C5=O)c3cn2)c1F [Example 53, 5-[6-(2,6-Difluoro-3,5-dimethoxyphenyl)-1H-pyrazolo[4,3-c]pyridin-3-yl]-2-isopropylisoindolin-1-one]
< 100 nM: all assays above

COc1cc(OC)c(F)c(-c2ncc3c(-c4ccc5c(c4)CN(C4CC4)C5=O)n[nH]c3n2)c1F [Example 21, 2-Cyclopropyl-5-[6-(2,6-difluoro-3,5-dimethoxyphenyl)-1H-pyrazolo[3,4-d]pyrimidin-3-yl]isoindolin-1-one]
< 100 nM: all assays above

CNC(=O)Cn1cc(-c2n[nH]c3cc(-c4c(Cl)c(OC)cc(OC)c4Cl)ncc23)cn1 [Example 36, 2-{4-[6-(2,6-Dichloro-3,5-dimethoxyphenyl)-1H-pyrazolo[4,3-c]pyridin-3-yl]-1H-pyrazol-1-yl}-N-methylacetamide]
< 100 nM: all assays above
